# Patent US20250057790A1, “AN INJECTABLE PHARMACEUTICAL COMPOSITION FOR THE TREATMENT OF RESPIRATORY DISEASES IN ANIMALS” (priority 2021, published 2025)
# Legend:
# B. bronchiseptica = assay: MIC determination, broth-microdilution (CLSI VET01-A4), field isolates; format: cell-based, Bordetella bronchiseptica
# Protocol: (§1) This study determined the in vitro activity Compound (A), the enantiomer of the compound of Formula (I), against different isolates of Actinobacillus (A.) pleuropneumoniae, Bordetella (B.) bronchiseptica, Mannheimia (M.) haemolytica, Pasteurella (P.) multocida, Histophilus (H.) somni and Glaesserella parasuis collected in different European countries.
# (§2) The in vitro activity was determined by measuring the minimum inhibitory concentrations (MIC) according to CLSI document VET01-A4 [1] and by calculating MIC50 and MIC90.
# (§3) A total of 193 field isolates were tested: 31 of A. pleuropneumoniae, 20 of B. bronchiseptica, 20 of H. somni, 20 H. parasuis, 55 of M. haemolytica and 47 of P. multocida. All bacteria were isolated from the respiratory tract of cattle and swine suffering from respiratory disease. All isolates were epidemiologically unrelated as specified by the different suppliers. E. coli ATCC 25922 (ID 6105) and M. haemolytica ATCC 33396 (ID 6374) were used as reference strains for testing isolates of B. bronchiseptica, M. haemolytica and P. multocida. A. pleuropneumoniae ATCC 27090 (ID 6314) and H. somni ATCC 700025 (ID 6315) were used as reference strains for the testing isolates of A. pleuropneumoniae, H. somni and Glaesserella parasuis. Additionally, H. parasuis (G. parasuis) ATCC 19417 was included as type strain for growth control.
# (§4) • Mueller-Hinton agar (Becton Dickinson, Lot 9224866) • Cation-adjusted Mueller-Hinton broth, (CAVHB, Becton Dickinson, Lot 8190586) • Sheep blood, defibrinated (Thermo Scientific, Lot 37091500) • Chocolate agar, GC II with IsoVitalex™ (Becton Dickinson, Lot 0147695) • GC-agar base (Becton Dickinson, Lot 6082608) • Hemoglobin solution (Becton Dickinson, Lot 7142854) • Vitox (Oxoid, Lot 2344976) • Veterinary fastidious Medium (VFM), prepared according to CLSI document VET01-A4 [1], containing: • CAMHB (Becton Dickinson, Lot 8190586) • Yeast extract (Sigma, Lot BCBS5470V) • Lysed horse blood (Thermo Scientific, Lot 35875000) • Supplement C™ (Becton Dickinson, Lot 8030960) • Deionized water
# (§5) The MICs for all isolates except for H. somni and Glaesserella parasuis isolates, were determined by using the broth-microdilution method according to CLSI document VET01-A4 [1]. For isolates of H. somni and Glaesserella parasuis the agar-dilution method with chocolate agar GC II, was used. The test concentration range for all compounds was 16 μg/mL to 0.016 μg/mL.
# The MIC results were interpreted according to the CLSI document VET01-S3 [2]. […] All wells containing test item were compared with the growth-control wells. The lowest concentration of compound at which no visible growth (i.e. no turbidity) was detected by the unaided eye was recorded as the MIC. […]
# H. somni = assay: MIC determination, agar dilution (chocolate agar GC II), field isolates; format: cell-based, Histophilus somni
# Protocol: as §1, §2, §3, §4, §5
# (§6) For isolates tested by the agar-dilution method, results were interpreted according to the CLSI document VET01-S3 [2]. […] The MIC50 and MIC90 represent the concentrations at which a minimum of 50% or 90% of the isolates tested are inhibited.
# Glaesserella parasuis = assay: MIC determination, agar-dilution (chocolate agar GC II), field isolates; format: cell-based
# Protocol: as §1, §2, §3, §4, §5, §6
# [1] = Pharmacokinetic analysis in blood plasma of cattle after single SC administration; format: in vivo; settings: for concentration at 0.25 h / concentration at 0.5 h / concentration at 1 h / concentration at 2 h / concentration at 4 h / concentration at 7 h / concentration at 10 h / concentration at 24 h / concentration at 32 h / concentration at 48 h / concentration at 72 h: bovine, plasma, sc, 10 mg/kg, cattle; for concentration at 0.25 h: 0.25 h after administration; for concentration at 0.5 h: 0.5 h after administration; for concentration at 1 h: 1 h after administration; for concentration at 2 h: 2 h after administration; for concentration at 4 h: 4 h after administration; for concentration at 7 h: 7 h after administration; for concentration at 10 h: 10 h after administration; for concentration at 24 h: 24 h after administration; for concentration at 32 h: 32 h after administration; for concentration at 48 h: 48 h after administration; for concentration at 72 h: 72 h after administration
# Protocol: This study determined the bioavailability, the pharmacokinetic profile of Compound A formulations for subcutaneous (SC) injection in the blood plasma of cattle after a single subcutaneous (SC) administration of 10 mg/kg body weight. Concentrations in the blood plasma and bronchial epithelial lining fluid concentrations were determined. Additional tissues were collected post mortem for compound concentration determination.
# Compound A was formulated as described in Examples 1 and 2 above. The aqueous solution formulation was Compound A 15% w/v, 15 w/v Kollisolv P124, 6% w/v benzyl alcohol, 7% w/v citric acid, and QS Water, pH 5.2. The oily suspension formulation was Compound A 17.5% w/v, suspended with 0.1% Kolliphor HS, and QS Miglyol812.
# Samples were collected into K-EDTA coated Monovettes®. The samples were collected from the Vena jugularis externa. Preferred was the left side of the body, on the opposite side of administration.
# The tubes were gently shaken to ensure proper mixing of blood with the anti-coagulant and placed in ice water until centrifugation. K-EDTA-Blood samples were centrifuged at approximately 4° C. and a relative centrifugal force of 2000 for 10 min. Within 2 hours after collection, two aliquots (1, 2) of approximately 0.5 mL blood plasma were pipetted off each sample into labeled plastic (polypropylene) freezer vials.
# Pharmacokinetic (PK) parameters (Table 10-2) were calculated using the Phoenix WinNonlin 8.1 software. PK parameters (at least: Cmax, Tmax, AUClast, HL_Lambda_Z, VZ_F, MRTlast, CL_F and F %) to describe the PK profile after SC compound administration.
# [2] = Bordetella bronchiseptica, 20 isolates, broth microdilution
# [3] = Glaesserella parasuis, 20 isolates, agar dilution
# [4] = both aqueous solution group and oily suspension group, SC 10 mg/kg
# [5] = SC 10 mg/kg 15% aqueous solution
# [6] = SC 10 mg/kg 17.5% oily suspension
structure (smiles),measurement,setting,value
COCCNCc1ccc(C#Cc2ccc(C(=O)N[C@H](C(=O)NO)C(C)(C)N)cc2)cc1 [Compound A],MIC50,B. bronchiseptica; [2],8 µg/mL
same,MIC90,B. bronchiseptica; [2],16 µg/mL
same,Distribution of MICs: number of isolates with MIC 8 μg/mL,B. bronchiseptica; of 20 isolates tested,10
same,Distribution of MICs: number of isolates with MIC 16 μg/mL,B. bronchiseptica; of 20 isolates tested,10
same,MIC50,"H. somni; Histophilus somni, 20 isolates",1 µg/mL
same,MIC90,"H. somni; Histophilus somni, 20 isolates",2 µg/mL
same,Distribution of MICs: number of isolates with MIC 0.25 μg/mL,H. somni; of 20 isolates tested,1
same,Distribution of MICs: number of isolates with MIC 0.5 μg/mL,H. somni; of 20 isolates tested,1
same,Distribution of MICs: number of isolates with MIC 1 μg/mL,H. somni; of 20 isolates tested,14
same,Distribution of MICs: number of isolates with MIC 2 μg/mL,H. somni; of 20 isolates tested,4
same,MIC50,Glaesserella parasuis; [3],1 µg/mL
same,MIC90,Glaesserella parasuis; [3],2 µg/mL
same,Distribution of MICs: number of isolates with MIC 0.5 μg/mL,Glaesserella parasuis; of 20 isolates tested,2
same,Distribution of MICs: number of isolates with MIC 1 μg/mL,Glaesserella parasuis; of 20 isolates tested,12
same,Distribution of MICs: number of isolates with MIC 2 μg/mL,Glaesserella parasuis; of 20 isolates tested,5
same,Distribution of MICs: number of isolates with MIC 4 μg/mL,Glaesserella parasuis; of 20 isolates tested,1
same,Compound persistence in cattle,[1]; [4],around 11 h
same,Period of constant plasma plateau levels after treatment,[1]; [4],4 to 10 h
same,"Time for which compound was detected in bovine plasma, on average",[1]; [4],72 h
same,concentration at 0.25 h,[1]; [5],1440 ng/mL
same,concentration at 0.5 h,[1]; [5],1630 ng/mL
same,concentration at 1 h,[1]; [5],1260 ng/mL
same,concentration at 2 h,[1]; [5],567 ng/mL
same,concentration at 4 h,[1]; [5],363 ng/mL
same,concentration at 7 h,[1]; [5],395 ng/mL
same,concentration at 10 h,[1]; [5],320 ng/mL
same,concentration at 24 h,[1]; [5],47 ng/mL
same,concentration at 32 h,[1]; [5],22 ng/mL
same,concentration at 48 h,[1]; [5],11.5 ng/mL
same,concentration at 72 h,[1]; [5],6.55 ng/mL
same,concentration at 0.25 h,[1]; [6],1220 ng/mL
same,concentration at 0.5 h,[1]; [6],1090 ng/mL
same,concentration at 1 h,[1]; [6],571 ng/mL
same,concentration at 2 h,[1]; [6],413 ng/mL
same,concentration at 4 h,[1]; [6],356 ng/mL
same,concentration at 7 h,[1]; [6],433 ng/mL
same,concentration at 10 h,[1]; [6],319 ng/mL
same,concentration at 24 h,[1]; [6],56.5 ng/mL
same,concentration at 32 h,[1]; [6],30.8 ng/mL
same,concentration at 48 h,[1]; [6],13.2 ng/mL
same,concentration at 72 h,[1]; [6],7.28 ng/mL
